Where two headings read alike, the source gives them in different places.
Legend:
[1] = test system: human epithelial cells and rat arterial smooth muscle cells; assay: Mortality of human epithelial cells and of rat arterial smooth muscle cells (antioxidant effect, model of oxygen toxicity); type: cell-based; conditions: for protective effect on cell mortality: result in words; for Reduction in percentages: cell mortality: in culture medium: (-)hydroxycitrate 0.1 mM, silicon 0.036 mM, magnesium 0.1 mM
Method: (§1) 1) Study of the Mortality of Human Epithelial Cells and of Rat Arterial Smooth Muscle Cells.
The antioxidant effects of (-)hydroxycitrate and of different minerals were tested according to the protocol described by Michiels et al: "A new experimental model to study oxygen toxicity", Arch. int. Physiol. Biochem. 94 (5), S13-S18, 1986, using rat hepatocytes, as well as human epithelial cells and rat arterial smooth muscle cells.
(§2) The various products were respectively tested at the following concentrations: […]

[2] = test system: rat arterial smooth muscle cells; assay: Accumulation of intracellular lipids in arterial smooth muscle cells; type: cell-based; conditions: for Reduction in percentages: accumulation of lipids: in culture medium: (-)hydroxycitrate 0.1 mM, silicon 0.036 mM, magnesium 0.1 mM
Method: as §1
(§3) The inhibitory effects of these compounds on the proliferation of arterial smooth muscle and on the accumulation of intracellular lipids was also tested using the method described by Shrivastava et al. in Meth. Find. Exp. Clin. Pharmacol. 15 (6), pages 345-350, 1993.
as §2

[3] = test system: rat arterial smooth muscle cells; assay: Proliferation of arterial smooth muscle cells; type: cell-based; conditions: for Reduction in percentages: proliferation of cells: in culture medium: (-)hydroxycitrate 0.1 mM, silicon 0.036 mM, magnesium 0.1 mM
Method: as §1, §3, §2

[4] = literature, Majeed et al. 1994; in words; cited from earlier work
[5] = test system: hypercholesterolemic rabbits; assay: Effect in vivo on the cholesterol level in hypercholesterolemic rabbits; parameters: species or system rabbit; conditions: 750 mg/kg oral
Method: (§4) 2) Study of the Effect in vivo on the Cholesterol Level and on Lipidic Deposits in Hypercholesterolemic Rabbits.
(§5) Two batches of 20 male rabbits (Elevage scientifique des Dombes: 2.5-3 kg) received a cholesterol-rich food (1%) for a period of 8 weeks. The first batch were not treated and therefore served as a control while the second batch received 750 mg/kg of magnesium (-)hydroxycitrate by oral route.

[6] = test system: wall of the aorta, hypercholesterolemic rabbits; assay: Lipidic deposits on the wall of the aorta in hypercholesterolemic rabbits; type: in vivo, rabbit; conditions: 750 mg/kg oral
Method: as §4, §5

[7] = test system: hypercholesterolemic rabbit; type: in vivo
Method: 3) Study of Antiatherosclerotic Effects in the Hypercholesterolemic Rabbit.
Two batches of 15 male rabbits (Elevage scientifique des Dombes: 2.5-3 kg) received a cholesterol-rich food: 0.2% for the period D+8 to D+37, then 1% until D+69, when the animals are sacrificed.
The first batch was not treated and therefore served as a control while the second batch received 500 mg/kg of magnesium (-)hydroxycitrate by oral route.

hypertensive rat = assay: Anti-hypertensive activity in the hypertensive rat; type: in vivo; conditions: 500 mg/kg/day oral, one week, vs untreated controls
Method: 4) Study of Anti-hypertensive Activity in the Hypertensive Rat
Magnesium (-)hydroxycitrate was tested on 12 hypertensive rats. A batch of 12 other hypertensive rats was used as a control batch. An average reduction in arterial pressure of 17%±3% with respect to the controls (untreated) was noted after one week of treatment at a rate of 500 mg per kilogram per day by oral route.

in vivo = conditions: rat
Excerpt: The toxicity of magnesium (-)hydroxycitrate is greater than 2 g/kg by intraperitoneal route or than 7 g/kg per os in the rat. That of metals, in particular in the form of salts or mineral oxides (frequently administered as trace elements) is well known.

[8] = result in words, with respect to (-)hydroxycitrate or magnesium
[9] = 500 mg/kg/day oral, 62 days, vs controls

O=C(O)CC(O)(C(=O)O)C(O)C(=O)O (single isomer, unassigned; (-)) [(-)hydroxycitrate, (-)hydroxycitric acid]
protective effect on cell mortality [1]: no protective effect on cell mortality
Reduction in percentages: accumulation of lipids [2]: 16 (±3) %
Reduction in percentages: proliferation of cells [3]: 6 (±4) %
body weight [4]: reduces body weight

O=C(O)C[C@@](O)(C(=O)O)[C@H](O)C(=O)O [Magnesium (-)hydroxycitrate, magnesium (-)hydroxycitrate]
protective effect on cell mortality [1]: more protective effect
Reduction in percentages: accumulation of lipids [2]: 81 (±13) %
effect on accumulation of lipids [2, 8]: very significant increase in the effects
Reduction in percentages: proliferation of cells [3]: 48 (±8) %
effect on cell proliferation [3, 8]: very significant increase in the effects
HDL's, variation ([5]; 4 weeks, vs controls): +8.5%
LDL's, variation ([5]; 4 weeks, vs controls): -22.4%
Total cholesterol, variation ([5]; 4 weeks, vs controls): -19.5%
Total cholesterol/HDL ratio, variation ([5]; 4 weeks, vs controls): -28.2%
HDL's, in words ([5]; after 4 weeks): increase in HDL's
LDL's, in words ([5]; after 4 weeks): reduction in LDL's
HDL's ([5]; after 4 weeks of treatment): 0.246 g/L
LDL's ([5]; after 4 weeks of treatment): 4.00 g/L
Total cholesterol ([5]; after 4 weeks of treatment): 4.47 g/L
Total cholesterol/HDL ratio ([5]; after 4 weeks of treatment): 19.22
number of lipidic deposits, aortic arch, week 4 ([6]; 4 weeks): 3.5
number of lipidic deposits, thoracic arch, week 4 ([6]; 4 weeks): 0.0
number of lipidic deposits, aortic arch, week 8 ([6]; 8 weeks): 1.5
number of lipidic deposits, thoracic arch, week 8 ([6]; 8 weeks): 0.0
number of lipidic deposits, in words ([6]; after 4 weeks and after 8 weeks): reduction in the number of lipidic deposits
number of lipidic deposits, total ([6]; sum of aortic and thoracic arch, weeks 4 and 8): 5.0
lipidic deposits, total, Variation % ([6]; vs controls): -80.4%
Reduction in weight of spleen ([7]; 500 mg/kg/day oral, 62 days): -20.3%
Reduction in weight of surrenal glands ([7]; 500 mg/kg/day oral, 62 days): -21.6%
Reduction in lipidic deposits on the aortic vascular wall ([7]; 500 mg/kg/day oral, 62 days, vs control batch): 46.3%
Reduction in the total cholesterol level [7, 9]: -13.75%
Reduction in the total cholesterol/HDL ratio [7, 9]: -25.72%
increase in HDL levels [7, 9]: +12.5%
Reduction in LDL's ([7]; 500 mg/kg/day oral, 62 days, vs controls, given without sign): 16.36%
weight of heart, liver ([7]; 500 mg/kg/day oral, 62 days, in words): Reduction in weight of heart, liver
overall effect on the hypercholesterolemic rabbit ([7]; non-cytotoxic doses, in words): hypocholesterolemia and anti-atherosclerotic effect
average reduction in arterial pressure (hypertensive rat): 17%±3%
LD50 (in vivo; ip, intraperitoneal, read-out: toxicity, intraperitoneal route): > 2000 mg/kg
LD50 (in vivo; po, per os, read-out: toxicity, per os): > 7000 mg/kg

Magnesium
Reduction in percentages: cell mortality [1]: 6 (±3) %
protective effect on cell mortality [1]: reduces this mortality very slightly
Reduction in percentages: accumulation of lipids [2]: 20 (±9) %
Reduction in percentages: proliferation of cells [3]: 2 (±2) %

Silicon
Reduction in percentages: cell mortality [1]: 28 (±7) %
Reduction in percentages: accumulation of lipids [2]: 32 (±5) %
Reduction in percentages: proliferation of cells [3]: 28 (±6) %
